The record followed here is patent US20250051300A1, “GRAM-NEGATIVE SPECIFIC ANTIBIOTICS SPARING EFFECT ON GUT MICROBIOME” (THE BOARD OF TRUSTEES OF THE UNIVERSITY OF ILLINOIS, priority 2021, published 2025).

One may read the MIC as the lowest concentration found to suppress growth.

Data set [1] deals with Streptococcus parasanguinis. The data set can be described thus: MIC, gut commensal bacteria, micro-dilution broth. Particulars: Streptococcus parasanguinis. (In general: Dilution methods test growth across graded concentrations, often in twofold steps.)
Data set [2] deals with Lactobacillus reuteri. The data set can be described thus: MIC, gut commensal bacteria, micro-dilution broth. Particulars: Limosilactobacillus reuteri, ATCC23272.
In data set [3] the test system is Morganella morganii. Put plainly: MIC, gut commensal bacteria, micro-dilution broth. The conditions noted are these: ATCC25839.
The subject of data set [4] is Blautia producta. Put plainly: MIC, gut commensal bacteria, micro-dilution broth. The conditions noted are these: Blautia producta, ATCC27340.
In data set [5] the test system is Bacteroides fragilis. Put plainly: MIC, gut commensal bacteria, micro-dilution broth. Particulars: Bacteroides fragilis, ATCC25285.
Data set [6] has as its system Faecalibacterium prausnitzii. The data set can be described thus: MIC, gut commensal bacteria, micro-dilution broth. The conditions noted are these: Faecalibacterium prausnitzii, ATCC27768.
In data set [7] the test system is Bacteroides cellulosilyticus. Put plainly: MIC, gut commensal bacteria, micro-dilution broth. Particulars: Bacteroides cellulosilyticus.
For data set [8], the system named is Enterococcus faecalis. Put plainly: MIC, micro-dilution broth method (CLSI). Particulars: Enterococcus faecalis KLE 2341, BHI-ych; read-out: MIC. Format: cell-based.
Data set [9] relates to Proteus mirabilis. The data set can be described thus: MIC, gut commensal bacteria, micro-dilution broth. Particulars: Proteus mirabilis, ATCC35659.
For data set [10], the system named is Bifidobacterium longum. The data set can be described thus: MIC, gut commensal bacteria, micro-dilution broth. The conditions noted are these: Bifidobacterium longum, ATCCBAA999.
Data set [11] relates to gut microbiome. Put plainly: Impact on murine fecal microbiome (16S rRNA sequencing). The conditions noted are these: oral gavage twice a day for three days; feces at days 0, 7, 10, 31.
The subject of data set [12] is Stenotrophomonas maltophilia. The data set can be described thus: MIC, gut commensal bacteria, micro-dilution broth. Particulars: Stenotrophomonas maltophilia, ATCC13637.
For data set [13], the system named is Streptococcus salivarius. Put plainly: MIC, gut commensal bacteria, micro-dilution broth. Particulars: Streptococcus salivarius.
For data set [14], the system named is Bacteroides vulgatus. The data set can be described thus: MIC, gut commensal bacteria, micro-dilution broth. Particulars: Phocaeicola vulgatus.

Values after ≈ are worked out from the molar mass of the structure shown. Some results are limits rather than exact numbers.

For `CCC[C@@H]1C[C@@H](C(=O)N[C@@H]([C@H]2O[C@H](SC)[C@H](O)[C@@H](O)[C@H]2O)[C@H](C)Cl)N(C)C1` [Clindamycin], the MIC in data set [1] was 0.06 µg/mL (≈ 0.141 µM); in data set [2], 0.25 µg/mL (≈ 0.588 µM); in data set [3], more than 128 µg/mL; in [4], 1 µg/mL (≈ 2.35 µM); in data set [5], 4 µg/mL (≈ 9.41 µM); in data set [6] it was 0.25 µg/mL (≈ 0.588 µM). In addition, the MIC in data set [7] was more than 128 µg/mL; in data set [8], 1 µg/mL (≈ 2.35 µM); in data set [9], 0.125 µg/mL (≈ 0.294 µM); in data set [10], 0.5 µg/mL (≈ 1.18 µM); in [12], 0.5 µg/mL (≈ 1.18 µM); in [13], 2 µg/mL (≈ 4.71 µM). Besides, the MIC in data set [14] stood at 16 µg/mL (≈ 37.6 µM). Also, the “effect on gut microbiome taxonomic composition” value in data set [11] is “large decreases in the members of Bacilli and Bacteroidia”.
`CC1(C)S[C@@H]2[C@H](NC(=O)[C@H](N)c3ccc(O)cc3)C(=O)N2[C@H]1C(=O)O` [Amoxicillin]: the MIC in [1] came to 64 µg/mL (≈ 175 µM); in [2], 1 µg/mL (≈ 2.74 µM); in data set [3], 32 µg/mL (≈ 87.6 µM); in data set [4] it was 1 µg/mL (≈ 2.74 µM); in data set [5], 128 µg/mL (≈ 350 µM); in data set [6] it was 64 µg/mL (≈ 175 µM). For the same compound, the MIC in data set [7] was more than 128 µg/mL; in [8], 0.25 µg/mL (≈ 0.684 µM); in [9], 0.008 µg/mL (≈ 0.0219 µM); in data set [10], 1 µg/mL (≈ 2.74 µM); in data set [12], more than 128 µg/mL; in data set [13], 0.125 µg/mL (≈ 0.342 µM). This compound also showed an MIC in data set [14] of 2 µg/mL (≈ 5.47 µM). Besides, the “effect on gut microbiome taxonomic composition” value in [11] is “increases in members of Bacteroidia”.
